The conditions of data set [1]: cited from earlier work.
In data set [2] the test system is Leishmania donovani axenic amastigote parasites. Kind of data set: Assay for Leishmania proliferation in vitro (axenic amastigotes, Cell TiterGlo). As to conditions: 48 h, 2 day incubation, read-out: L. donovani amastigotes EC50. The data set is classed as cell-based. Summed up: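 L. donovani axenic amastigotes (9600 per well) are cultured with compound for 2 days at 37° C, 5% CO2 in RPMI-based medium at pH 5.5. Viability is read by CellTiterGlo luminescence, and EC50 is calculated.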

The test system of data set [3] is L. donovani HU3 strain in mouse peritoneal macrophages. Kind of data set: Proliferation of L. donovani in mouse peritoneal macrophages (SybrGreen, high-content imaging). The data set is classed as cell-based. The note with it: Leishmania donovani, Peritoneal macrophage, 120 h; infected mouse peritoneal macrophages, 5 days; read-out: L. donavani Macrophage EC50. Summed up: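 Peritoneal macrophages from uninfected BALB/c mice were infected for 24 h with spleen-derived amastigotes (9-11 week infected mice), then exposed to compound for 5 days at 37° C. Fixed cells stained with SybrGreen and parasite nuclei counted by high-content imaging; EC50 calculated from inhibition.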

For data set [4], the system named is Trypanosoma cruzi amastigotes cultured in 3T3 fibroblast cells. Nature of the data set: Assay for proliferation of kinetoplastid parasite Trypanosoma cruzi (beta-galactosidase/CPRG readout). Type of data set: cell-based. As to conditions: NIH3T3, 144 h, Tulahuen strain in 3T3 cells, 6 day incubation, read-out: T cruzi EC50.
For data set [5], the system named is Trypanosoma brucei Lister 427 strain. Nature of the data set: Assay for proliferation of kinetoplastid parasite Trypanosoma brucei (Cell Titer Glo). Type of data set: cell-based. As to conditions: bloodstream form, 48 hours, read-out: T. brucei EC50. An excerpt: The proliferation is quantified by the addition of Cell Titer Glo (Promega®) a luminescent cell viability assay that measures the number of viable cells in culture based on the quantification of cellular ATP amount, which is an indicator of metabolically active cells. The following assay illustrates the invention without in any way limiting the scope of the invention. This parasite proliferation assay measures the increase in parasite growth using an assay that measures ATP activity, Cell Titer Glo®.
Trypanosoma brucei Lister 427 strain is grown in HMI-9 Trypanosome media for T. brucei bloodstream form. 30 μl of HMI-9 media is dispensed into 384 well assay plates. 200 nL of compounds of the invention (in DMSO), including anti-trypanosome controls (Pentamidine and suramin), are then transferred into the assay plates, as well as DMSO alone to serve as a negative control for inhibition. Then 25 μl of a suspension of T. brucei culture in HMI-9 media is dispensed into the assay plates. The final concentration of parasites in culture corresponds to 1.7% of 0.5 uM ATP activity with Cell Titer Glo® in HMI-9 media. The plates are placed in a 37° C. incubator for 48 hours in an atmospheric environment containing 5% CO2. 40 μl of Cell Titer Glo® is dispensed into the plates. The plates are then read for luminescence. The percentage inhibition of 50%, EC50, is calculated for each compound.

As for `Nc1nc(N)nc(Nc2ccc([As]3SCC(CO)S3)cc2)n1` (stereo not shown) [Melarsoprol], the “reactive encephalopathy cases that result in death” value in data set [1] (of the encephalopathy cases) is 10-70%. The “patients who developed reactive encephalopathy” value in data set [1] (patients injected with the drug) was 3-10%.
For `CC(C)OC(=O)Nc1cnc2nc(-c3cccc(NC(=O)c4ccc(F)o4)c3)[nH]c2c1` [Example 78, propan-2-yl N-{2-[3-(5-fluorofuran-2-amido)phenyl]-1H-imidazo[4,5-b]pyridin-6-yl}carbamate], the EC50 in data set [2] is 4.7 µM; in data set [3], 1.39 µM; in data set [4], 1.44 µM; in data set [5], 0.2 µM.
The matching figures for `CC(C)(N)C(=O)Nc1cnc2nc(-c3cc(NC(=O)c4ccco4)ccc3Cl)[nH]c2c1` [Example 26, N-{3-[6-(2-amino-2-methylpropanamido)-1H-imidazo[4,5-b]pyridin-2-yl]-4-chlorophenyl}furan-2-carboxamide]: over 25 µM, 23.3 µM, 14.8 µM and 0.53 µM.
The matching figures for `O=C(Nc1ccc(Cl)c(-c2nc3ncc(NC(=O)C4(O)CC4)cc3[nH]2)c1)c1ccco1` [Example 35, N-(4-chloro-3-{6-[(1-hydroxycyclopropane)amido]-1H-imidazo[4,5-b]pyridin-2-yl}phenyl)furan-2-carboxamide]: 11.4 µM, over 50 µM, over 20 µM and 0.907 µM.
In the case of `O=C(Nc1ccc(Cl)c(-c2nc3ncc(NC(=O)C4CC4)cc3[nH]2)c1)c1ccco1` [Example 45, N-(4-chloro-3-{6-cyclopropaneamido-1H-imidazo[4,5-b]pyridin-2-yl}phenyl)-furan-2-carboxamide], the concentration for a half-maximal effect (EC50) in data set [2] turned out to be 0.45 µM; in data set [3] it was 1.16 µM; in data set [4], 2.86 µM; in data set [5], 0.115 µM.
On to `CC(C)(COC(=O)Nc1cnc2nc(-c3cc(NC(=O)c4ccco4)ccc3Cl)[nH]c2c1)NC(=O)OC(C)(C)C` [Example 15, tert-butyl N-{1-[({2-[2-chloro-5-(furan-2-amido)phenyl]-1H-imidazo[4,5-b]pyridin-6-yl}carbamoyl)oxy]-2-methylpropan-2-yl}carbamate], for which the EC50 turned out to be 5.1 µM in data set [2], 8.7 µM in data set [3], 1.85 µM in data set [4] and 0.64 µM in data set [5].
With `O=C(C[C@H]1CCNC1)Nc1cnc2nc(-c3cc(NC(=O)c4ccco4)ccc3Cl)[nH]c2c1` [Example 34, N-[4-chloro-3-(6-{2-[(3R)-pyrrolidin-3-yl]acetamido}-1H-imidazo[4,5-b]pyridin-2-yl)phenyl]furan-2-carboxamide], the EC50 is over 25 µM in data set [2], over 50 µM in data set [3], over 20 µM in data set [4] and 15.2 µM in data set [5].
The matching figures for `COCC1(C(=O)Nc2cnc3nc(-c4cc(NC(=O)c5ccco5)ccc4Cl)[nH]c3c2)CC1` [Example 42, N-[4-chloro-3-(6-{[1-(methoxymethyl)cyclopropane]amido}-1H-imidazo[4,5-b]pyridin-2-yl)phenyl]furan-2-carboxamide]: 1.09 µM, 1.91 µM, 1.32 µM and 0.185 µM.
For the compound `O=C(Nc1ccc(Cl)c(-c2nc3ncc(NC(=O)C4CCC4)cc3[nH]2)c1)c1ccco1` [Example 55, N-(4-chloro-3-{6-cyclobutaneamido-1H-imidazo[4,5-b]pyridin-2-yl}phenyl)furan-2-carboxamide], the EC50 in data set [2] worked out at 0.95 µM; in data set [3], 0.83 µM; in data set [4] it was 1.25 µM; in data set [5] it was 0.075 µM.
Consider `O=C(Nc1ccc(Cl)c(-c2nc3ncc(NC(=O)C4CC4(F)F)cc3[nH]2)c1)c1ccco1` (stereo not shown) [Example 44, N-(4-chloro-3-{6-[(2,2-difluorocyclopropane)amido]-1H-imidazo[4,5-b]pyridin-2-yl}phenyl)furan-2-carboxamide], for which the EC50 in data set [2] was found to be 2.38 µM; in data set [3] it was 5.3 µM; in data set [4], 3.9 µM; in data set [5], 0.282 µM.
For the compound `CC1(C)CC(C(=O)Nc2cnc3nc(-c4cc(NC(=O)c5ccco5)ccc4Cl)[nH]c3c2)C1` [Example 56, N-(4-chloro-3-{6-[(3,3-dimethylcyclobutane)amido]-1H-imidazo[4,5-b]pyridin-2-yl}phenyl)furan-2-carboxamide], the EC50 is 2.96 µM in data set [2], 2.23 µM in data set [3], 1.23 µM in data set [4] and 0.346 µM in data set [5].
In the case of `CC(C)(C)OC(=O)NCC1(C(=O)Nc2cnc3nc(-c4cc(NC(=O)c5ccco5)ccc4Cl)[nH]c3c2)CC1` [Example 63, tert-butyl N-{[1-({2-[2-chloro-5-(furan-2-amido)phenyl]-1H-imidazo[4,5-b]pyridin-6-yl}carbamoyl)cyclopropyl]methyl}carbamate], the EC50 in data set [2] was 0.46 µM; in data set [3], 0.53 µM; in data set [4], 0.248 µM; in data set [5], 0.044 µM.
As to `CC(C)(C)OC(=O)NCCC(=O)Nc1cnc2nc(-c3cc(NC(=O)c4ccc(F)o4)ccc3Cl)[nH]c2c1` [Example 68, tert-butyl N-[2-({2-[2-chloro-5-(5-fluorofuran-2-amido)phenyl]-1H-imidazo[4,5-b]pyridin-6-yl}carbamoyl)ethyl]carbamate], the half-maximal effective concentration (EC50) in data set [2] amounted to 6.2 µM; in data set [3], 7 µM; in data set [4], 7.6 µM; in data set [5], 0.411 µM.
As for `CCOC(=O)Nc1cnc2nc(-c3cccc(NC(=O)c4ccc(F)o4)c3)[nH]c2c1` [Example 3, ethyl N-{2-[3-(5-fluorofuran-2-amido)phenyl]-1H-imidazo[4,5-b]pyridin-6-yl}carbamate], the concentration giving a half-maximal response (EC50) in data set [2] was determined as 7.7 µM; in data set [3] it was 2.47 µM; in data set [4], 2.23 µM; in data set [5] it was 0.23 µM.
`CC(C)OC(=O)Nc1cnc2nc(-c3cc(NC(=O)c4ccc(F)o4)ccc3Cl)[nH]c2c1` [Example 47, propan-2-yl N-{2-[2-chloro-5-(5-fluorofuran-2-amido)phenyl]-1H-imidazo[4,5-b]pyridin-6-yl}carbamate]: the half-maximal effective concentration (EC50) in data set [2] worked out at 0.9 µM; in data set [3] it was 1.52 µM; in data set [4], 0.4 µM; in data set [5], 0.2 µM.

The record behind these values is patent publication US9186361B2, “Compounds and compositions for the treatment of parasitic diseases” (Novartis AG, priority 2013, dated 2015).
